Source: paper PMC8847575, “HSL1 and BAM1/2 impact epidermal cell development by sensing distinct signaling peptides” (Nature Communications, 2022)
Blank lines part the entries; values can stand above or below the molecule they belong to. Square brackets hold non-standard residues; d marks the D form. Peptide text beside a SMILES is read from it. Hyp = O=C(O)[C@@H]1C[C@@H](O)CN1

How the values were obtained:
[1] = target: HSL1 (HAESA-LIKE 1) ectodomain (Arabidopsis) (UniProt Q9SGP2); assay: ITC; peptide (75 to 600 µM) injected into 10 to 30 µM HSL1 or BAM1 ectodomain in the cell; 25 °C; 20 mM sodium citrate pH 5.0, 150 mM NaCl; N fitted to 1
HSL1 ectodomain [2] = target: T1, HSL1 ectodomain (Arabidopsis thaliana, UniProt Q9SGP2); assay: GCI binding kinetics, peptide vs immobilised HSL1; conditions: HSL1 on surface, peptide as analyte, 25 °C, pH 5, one-to-one binding model, read-out: ka association rate constant, peptide vs HSL1 (GCI)
T1 construct: HSL1 (residues 17-618, AT1G28440); azurocidin or Drosophila BIP signal peptide (secretion signal) (N); made in house; host or cells: Trichoplusia ni Tnao38 insect cells (baculovirus)
T1 sequence (Q9SGP2 17-618): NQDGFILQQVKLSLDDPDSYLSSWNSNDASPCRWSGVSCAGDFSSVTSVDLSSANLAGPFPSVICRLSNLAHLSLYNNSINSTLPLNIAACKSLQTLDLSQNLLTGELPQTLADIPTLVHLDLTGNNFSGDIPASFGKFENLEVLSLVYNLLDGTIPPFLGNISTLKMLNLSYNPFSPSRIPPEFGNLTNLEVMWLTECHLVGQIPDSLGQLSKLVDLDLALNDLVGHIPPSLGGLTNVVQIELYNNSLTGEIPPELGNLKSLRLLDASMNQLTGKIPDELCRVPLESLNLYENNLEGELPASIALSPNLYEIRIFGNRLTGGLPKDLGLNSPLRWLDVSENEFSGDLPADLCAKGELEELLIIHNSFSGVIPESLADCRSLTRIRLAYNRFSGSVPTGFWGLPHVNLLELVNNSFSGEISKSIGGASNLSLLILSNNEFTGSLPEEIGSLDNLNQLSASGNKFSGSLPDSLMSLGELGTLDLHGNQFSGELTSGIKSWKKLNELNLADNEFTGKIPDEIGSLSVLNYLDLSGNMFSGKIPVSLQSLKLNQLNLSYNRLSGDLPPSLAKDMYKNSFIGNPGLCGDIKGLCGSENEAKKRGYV
Experimental: 25 μM of HSL1 were biotinylated with the biotin ligase BirA[60] (2 μM) for 1 h at 30 °C, in a volume of 200 μl. The buffer used in the reaction was: 25 mM Tris pH 8, 150 mM NaCl, 5 mM MgCl2, 2 mM 2-Mercaptoethanol, 0.15 mM Biotin, 2 mM ATP. Biotinylated proteins were purified by size-exclusion chromatography in 20 mM citric acid pH5, 150 mM NaCl and subsequently used in GCI experiments.
GCI experiments were performed with the Creoptix WAVE system (Creoptix AG, Switzerland) using 4PCP WAVE chips (thin quasiplanar polycarboxylate surface; Creoptix, Switzerland). Chips were first conditioned with borate buffer (100 mM sodium borate pH 9.0, 1 M NaCl; Xantec, Germany). Chips were activated with 1:1 mix of 400 mM N-(3-dimethylaminopropyl)-N′-ethylcarbodiimide hydrochloride and 100 mM N-hydroxysuccinimide (Xantec, Germany). Streptavidin (50 µg/ml; Sigma, Germany) in 10 mM sodium acetate pH 5.0 (Sigma, Germany) was immobilized on the chip surface until saturation was reached, followed by passivation of the surface with BSA (50 µg/ml; Sigma, Germany) in 10 mM sodium acetate pH5.0, and a final quenching step with 1 M ethanolamine pH 8.0 (Xantec, Germany). Then, biotinylated HSL1 (ligand) (80–100 μg/ml) was captured on the streptavidin surface until the desired density was reached. Normal kinetic analysis were performed to measure the binding of IDL peptides (analyte) to HSL1. Experiments were performed at 25 °C with a 1:2 dilution series from a maximum concentration of 5–50 μM peptide, in 20 mM citrate pH 5, 250 mM NaCl, 0.005% Tween-20 v/v. To analyze the interaction kinetics of the co-receptor SERK1, 2 µM of the protein was used as a higher dilution with running buffer containing 5 µM of the IDL peptides being tested. Blank injections were used for double referencing and a dimethylsulfoxide (DMSO) calibration curve for bulk correction. Analysis and correction of the obtained data were performed using the Creoptix WAVE control software (correction applied: X and Y offset; DMSO calibration; double referencing). One-to-one binding model was used for both experiments.

HSL1 ectodomain [3] = target: T1, HSL1 ectodomain; assay: ITC, peptide titrated into isolated HSL1 ectodomain; conditions: peptide (syringe) into HSL1 ectodomain (cell), 25 °C, 20 mM sodium citrate pH 5.0, 150 mM NaCl, N fitted to 1, mean ± SD of at least two independent experiments, n.d = no binding detected
From the text: All genes used for protein expression in Trichoplusia ni Tnao38 cells[46] were codon optimized and cloned into a modified pFastBac vector (Geneva Biotech) providing an azurocidin[47] or Drosophila BIP signal peptide, a TEV (tobacco etch virus protease) cleavage site and a Strep-9xHis tandem affinity tag at their carboxy terminus. The genes used are coding for the Arabidopsis ectodomains of HSL1 (residues 17-618, AT1G28440), HAE (residues 20-620, AT4G28490) SERK1 (residues 24–213, AT1G71830), and BAM1 (residues 20–637, AT5G65700). To perform Grating-coupled interferometry (GCI) experiments, HSL1 was fused to a non-cleavable Avi-tag[49],[50]. […] After every expression round, secretion of our proteins was detected using an anti-His-HRP conjugated antibody from Roche (Ref:11965085001) in a 1:2000 dilution. […] Proteins were analyzed for purity and structural integrity by SDS-PAGE.
Experiments were performed at 25 °C using a MicroCal PEAQ-ITC (Malvern Instruments) with a 200 µL standard cell and a 40 μL titration syringe. […] Molar protein concentrations for HSL1, BAM1, and SERK1 were calculated using their molar extinction coefficient and a molecular weight of 74,896 and 27,551 Da, respectively as previously determined. […] Experiments were done in duplicates or triplicates, otherwise specified, and data were analyzed using the MicroCal PEAQ-ITC Analysis Software provided by the manufacturer. […]

BAM1 LRR ectodomain = target: T2, BAM1 LRR ectodomain (Arabidopsis thaliana, UniProt O49545); assay: ITC, peptide titrated into BAM1 ectodomain; type: binding
T2 construct: BAM1 (residues 20–637, AT5G65700); azurocidin or Drosophila BIP signal peptide (secretion signal) (N); made in house; host or cells: Trichoplusia ni Tnao38 insect cells (baculovirus)
T2 sequence (O49545 20-637): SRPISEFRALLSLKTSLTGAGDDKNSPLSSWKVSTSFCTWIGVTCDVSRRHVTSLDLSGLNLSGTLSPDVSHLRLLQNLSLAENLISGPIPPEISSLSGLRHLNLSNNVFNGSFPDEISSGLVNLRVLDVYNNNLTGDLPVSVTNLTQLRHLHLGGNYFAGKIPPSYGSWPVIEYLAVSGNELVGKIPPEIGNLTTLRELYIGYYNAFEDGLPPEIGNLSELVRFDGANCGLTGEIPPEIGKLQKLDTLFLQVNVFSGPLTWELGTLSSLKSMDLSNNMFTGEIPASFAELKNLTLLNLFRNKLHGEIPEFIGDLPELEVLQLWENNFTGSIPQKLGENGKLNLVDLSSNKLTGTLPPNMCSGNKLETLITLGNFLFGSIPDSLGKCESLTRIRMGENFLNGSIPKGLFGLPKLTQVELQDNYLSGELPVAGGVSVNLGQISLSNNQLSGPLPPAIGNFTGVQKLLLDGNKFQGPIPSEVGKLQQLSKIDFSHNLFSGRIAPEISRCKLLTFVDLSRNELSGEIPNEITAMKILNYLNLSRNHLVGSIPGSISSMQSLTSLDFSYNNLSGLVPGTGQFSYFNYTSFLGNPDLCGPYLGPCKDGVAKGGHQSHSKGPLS
From the text: All genes used for protein expression in Trichoplusia ni Tnao38 cells[46] were codon optimized and cloned into a modified pFastBac vector (Geneva Biotech) providing an azurocidin[47] or Drosophila BIP signal peptide, a TEV (tobacco etch virus protease) cleavage site and a Strep-9xHis tandem affinity tag at their carboxy terminus. The genes used are coding for the Arabidopsis ectodomains of HSL1 (residues 17-618, AT1G28440), HAE (residues 20-620, AT4G28490) SERK1 (residues 24–213, AT1G71830), and BAM1 (residues 20–637, AT5G65700). To perform Grating-coupled interferometry (GCI) experiments, HSL1 was fused to a non-cleavable Avi-tag[49],[50]. Baculovirus generation was carried out in DH10 cells and virus amplification was done in Spodoptera frugiperda Sf9 cells. For protein expression, Trichoplusia ni Tnao38 cells were infected with HAE, HSL1, BAM1 and SERK1 virus with a multiplicity of infection (MOI) of 3. The cells were grown 1 day at 28 °C and two days at 22 °C at 110 rpm. After every expression round, secretion of our proteins was detected using an anti-His-HRP conjugated antibody from Roche (Ref:11965085001) in a 1:2000 dilution. […] Next, affinity tags were removed by incubating the purified proteins with recombinant His-tagged TEV protease, in a 1:50 ratio. The cleaved tag and the protease were separated from the ectodomains by a second Ni^2+ affinity step. Proteins were further purified by size-exclusion chromatography on a Superdex 200 Increase 10/300 GL column (GE Healthcare) equilibrated in 20 mM citric acid pH 5.0, 150 mM NaCl. Peak fractions containing the single proteins or complexes were concentrated using Amicon Ultra concentrators (Millipore, MWCO 10,000 for SERK1 and 30,000 for HAE, HSL1, and BAM1) and used for crystallization or biochemical experiments. Proteins were analyzed for purity and structural integrity by SDS-PAGE.
Experiments were performed at 25 °C using a MicroCal PEAQ-ITC (Malvern Instruments) with a 200 µL standard cell and a 40 μL titration syringe. HSL1, BAM1, and SERK1 proteins were gel-filtrated into the ITC buffer (20 mM sodium citrate pH 5.0, 150 mM NaCl). Molar protein concentrations for HSL1, BAM1, and SERK1 were calculated using their molar extinction coefficient and a molecular weight of 74,896 and 27,551 Da, respectively as previously determined. A typical experiment consisted of injecting 2 μL of a range between 75 and 600 μM solution of ligand into 10 to 30 μM HAE, HSL1, or BAM1 solution in the cell at 150 s intervals and 500 rpm stirring speed. The SERK1 vs HAE/HSL1-peptide experiments were performed by titrating 100 µM SERK1 in the cell, using the same injection pattern. ITC data were corrected for the heat of dilution by subtracting the mixing enthalpies for titrant solution injections into protein-free ITC buffer. Experiments were done in duplicates or triplicates, otherwise specified, and data were analyzed using the MicroCal PEAQ-ITC Analysis Software provided by the manufacturer. […] The N values were fitted to 1 in the analysis.

fold reduction of binding affinity against wild-type IDA [1]: 15 fold
Molecule: IDA^K66AR67AH68A peptide (from UniProt Q8LAD7 58-69)

kon (HSL1 ectodomain [2]): 700000 M⁻¹ s⁻¹
Molecule: CC(C)[C@H](NC(=O)[C@@H]1CCCN1)C(=O)N1CCC[C@H]1C(=O)N[C@H](C(=O)N[C@@H](CO)C(=O)NCC(=O)N1C[C@H](O)C[C@H]1C(=O)N[C@@H](CO)C(=O)N[C@@H](CCCNC(=N)N)C(=O)N[C@@H](CCCCN)C(=O)N[C@@H](Cc1c[nH]cn1)C(=O)N[C@@H](CC(N)=O)C(=O)O)[C@@H](C)O [IDL3, IDA-LIKE] (H-PVPTSG[Hyp]SRKHN-OH)

Molecule: CC(C)C[C@H](NC(=O)[C@@H](N)CCCNC(=N)N)C(=O)N[C@H](C(=O)N1C[C@H](O)C[C@H]1C(=O)N[C@@H](CO)C(=O)NCC(=O)N1C[C@H](O)C[C@H]1C(=O)N[C@@H](CC(N)=O)C(=O)N1CCC[C@H]1C(=O)N[C@@H](CC(C)C)C(=O)N[C@@H](Cc1c[nH]cn1)C(=O)N[C@@H](CC(N)=O)C(=O)O)C(C)C [CLE9] (H-RLV[Hyp]SG[Hyp]NPLHN-OH)
Kd (dissociation constant), peptide vs HSL1 (HSL1 ectodomain [3]): did not detect binding | Kd (BAM1 LRR ectodomain): 94 ± 56 nM

Molecule: CC[C@H](C)[C@H](NC(=O)[C@@H]1CCCN1)C(=O)N1CCC[C@H]1C(=O)N1CCC[C@H]1C(=O)N[C@@H](CO)C(=O)N[C@@H](C)C(=O)N1C[C@H](O)C[C@H]1C(=O)N[C@@H](CO)C(=O)N[C@@H](CCCCN)C(=O)N[C@@H](CCCNC(=N)N)C(=O)N[C@@H](Cc1c[nH]cn1)C(=O)N[C@@H](CC(N)=O)C(=O)O [IDA, INFLORESCENCE DEFICIENT IN ABSCISSION] (H-PIPPSA[Hyp]SKRHN-OH)
kon (HSL1 ectodomain [2]): 225000 M⁻¹ s⁻¹ | Kd (dissociation constant), peptide vs BAM1 (BAM1 LRR ectodomain; ITC, peptide into BAM1 ectodomain (cell), 25 °C, 20 mM sodium citrate pH 5.0, 150 mM NaCl, N fitted to 1, mean ± SD of at least two independent experiments, n.d = no binding detected): did not detect interaction
